Counter-ions that a name gives are not always drawn.

One may read the IC50 as the point on the concentration scale where inhibition reaches its midpoint.

Chain of recombinant human CETP protein (P11597 18-493): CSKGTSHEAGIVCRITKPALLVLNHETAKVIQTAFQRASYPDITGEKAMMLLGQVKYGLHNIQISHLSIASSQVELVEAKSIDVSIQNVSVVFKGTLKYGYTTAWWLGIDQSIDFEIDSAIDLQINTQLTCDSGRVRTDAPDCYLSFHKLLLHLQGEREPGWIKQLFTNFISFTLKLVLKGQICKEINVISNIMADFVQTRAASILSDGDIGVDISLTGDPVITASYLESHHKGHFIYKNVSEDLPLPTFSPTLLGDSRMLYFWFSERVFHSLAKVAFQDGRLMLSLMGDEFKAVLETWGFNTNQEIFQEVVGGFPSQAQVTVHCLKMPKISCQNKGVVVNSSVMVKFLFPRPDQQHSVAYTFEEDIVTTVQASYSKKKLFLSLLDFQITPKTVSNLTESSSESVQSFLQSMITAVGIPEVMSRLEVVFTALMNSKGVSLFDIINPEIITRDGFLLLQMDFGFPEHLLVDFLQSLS

This assay has as its target recombinant human CETP protein (Homo sapiens (Human), UniProt P11597). The experiment in a line: Test of CETP inhibition activity (in vitro, buffer-based). It counts as biochemical. Particulars: [14C]-cholesteryl ester transfer from reconstituted HDL to acceptor lipoprotein, 37° C., 60 minutes, PBS buffer. As for the experimental part: Test of CETP Inhibition Activity (In Vitro, Buffer-Based)
(1) Preparation of Reconstituted HDL
Cholesterol (1.125 μmol), phosphatidyl choline (4.5 μmol) and [^14C]-labeled cholesteryl ester (2.0 μCi; 40 μl) were taken in a glass test tube and well mixed with a vortex, and dried under a nitrogen gas current so that it formed a thin film. The obtained mixture was dissolved in ethanol (200 μl), which was designated as Solution A. A PBS solution [a mixed solution of Na2HPO4 (30 mM), KH2PO4 (8.8 mM), NaCl (60 mM) and EDTA (pH 7.4; 0.67 mM); 4 ml] was taken in a tube and the reaction solution was vigorously stirred with a vortex under a nitrogen current. The above-described Solution A was gently injected into this mixture with a syringe and the reaction solution was vigorously stirred with a vortex for 5 minutes under a nitrogen current. Sodium cholate (200 mM; 0.38 ml) was added to the obtained mixture and the reaction solution was stirred for 2 minutes. ApoA-I protein (3 mg) was added to the obtained mixture and the reaction solution was stirred for 2 minutes. The obtained mixture was adjusted to 5 ml with the PBS solution and then dialyzed with the PBS solution. The obtained mixture was designated as the reconstituted HDL.
(2) Preparation of Acceptor Lipoprotein
NaBr was added to the plasma of a healthy person and the density of the mixture was adjusted to 1.019, and the mixture was subjected to density gradient centrifugation (40000 rpm, for 16 hours) to remove the fraction having a density of less than 1.019. NaBr was added to the obtained mixture and the density of the solution was adjusted to 1.063, and the solution was subjected to density gradient centrifugation (40000 rpm, 18 hours) to provide the fraction consisting of IDL (intermediate density lipoprotein) and LDL (1.019<density<1.063). The obtained fraction was dialyzed with the PBS solution. The obtained mixture was designated as the acceptor lipoprotein.
(3) Measurement of CETP Inhibition Activity
A recombinant human CETP protein (manufactured by Roar Biomedical Inc.; 4.5 ng), the acceptor lipoprotein described in (2) above (32.5 μg) and 5,5′-dithio-bis-(2-nitrobenzoic acid) (7 mM, 15 μl) were taken in a 96 well plate and the total amount of the mixture was adjusted to 48.5 μl with the PBS solution. The test compound [DMSO solution (concentration: 0.15, 0.5, 1.5, 5, 15, 50, 150 and 500 μM); 1.5 μl] was added to each well and the mixture was incubated in a thermostatic bath at 37° C. for 60 minutes. The reconstituted HDL (50 μl) described in (1) above was added to each well and the mixture was reacted in a thermostatic bath at 37° C. for 60 minutes. The 96 well plate was moved onto ice and a precipitation reagent [a mixed solution of magnesium chloride (60 mM) and 0.1% dextran sulfate[1/1(v/v)]; 15 μl] was added to each well, and then the mixture was allowed to stand on ice for 15 minutes. The reaction solution (80 μl) in each well was moved to a filter plate and centrifuged at 1500 rpm for 1 minute, and the filtrate which passed through the filter was designated as the HDL fraction and the radioactivity thereof was measured with a scintillation counter. The percentage decrease in radioactivity in the case where the test compound was added in comparison with that in case where the test compound was not added was designated as the percentage CETP inhibition. The IC50 value was calculated from the percentage CETP inhibition.
`CC(C)(O)CCOc1cnc(N2CCC(c3nc4c(c(C5CCC(F)(F)CC5)c3[C@@H](F)c3ccc(C(F)(F)F)cc3)[C@@H](O)CC(C)(C)C4)CC2)nc1` [Example 11, (5S)-4-(4,4-Difluorocyclohexyl)-3-{(S)-fluoro[4-(trifluoromethyl)phenyl]methyl}-2-{1-[5-(3-hydroxy-3-methylbutoxy)pyrimidin-2-yl]piperidin-4-yl}-7,7-dimethyl-5,6,7,8-tetrahydroquinolin-5-ol hemifumarate]: the IC50 was found to be 28.9 nM.
The same measure for `CC1(C)Cc2nc(C3CCN(c4ncc(OCCCS(C)(=O)=O)cn4)CC3)c([C@@H](F)c3ccc(C(F)(F)F)cc3)c(C3CCC(F)(F)CC3)c2[C@@H](O)C1` [Example 19, (5S)-4-(4,4-Difluorocyclohexyl)-3-{(S)-fluoro[4-(trifluoromethyl)phenyl]methyl}-7,7-dimethyl-2-(1-{5-[3-(methylsulfonyl)propoxy]pyrimidin-2-yl}piperidin-4-yl)-5,6,7,8-tetrahydroquinolin-5-ol methanesulfonate]: 22.9 nM.
The same measure for `CC1(C)Cc2nc(C3CCN(c4ncc(OC[C@H](O)CO)cn4)CC3)c([C@@H](F)c3ccc(C(F)(F)F)cc3)c(C3CCC(F)(F)CC3)c2[C@@H](O)C1` [Example 16, (5S)-4-(4,4-Difluorocyclohexyl)-2-[1-(5-{[(2R)-2,3-dihydroxypropyl]oxy}pyrimidin-2-yl)piperidin-4-yl]-3-{(S)-fluoro[4-(trifluoromethyl)phenyl]methyl}-7,7-dimethyl-5,6,7,8-tetrahydroquinolin-5-ol dihydrobromide]: 28.5 nM; for `CC(C)(O)CCOc1cnc(N2CCC(c3nc4c(c(C5CCC(F)(F)CC5)c3[C@@H](F)c3ccc(C(F)(F)F)cc3)[C@@H](O)CC(C)(C)C4)CC2)nc1` [Example 9, (5S)-4-(4,4-Difluorocyclohexyl)-3-{(S)-fluoro[4-(trifluoromethyl)phenyl]methyl}-2-{1-[5-(3-hydroxy-3-methylbutoxy)pyrimidin-2-yl]piperidin-4-yl}-7,7-dimethyl-5,6,7,8-tetrahydroquinolin-5-ol benzenesulfonate]: 11.6 nM.

The values are drawn from patent US9321747B2, “Acid addition salt of substituted pyridine compound” (DAIICHI SANKYO COMPANY, LIMITED, priority 2012, dated 2016).
